Results: patent US20200385789A1, “METHODS OF ASSESSING TELOMERES” (Children's Medical Research Institute, priority 2017, published 2020)

Tested on: IMR90 primary human foetal lung fibroblasts
Assay: Telomere length by telomere fibre-FISH (TFF) after exposure of cells to inhibitors
Type: cell-based
Conditions: 0.1 μM aphidicolin and/or 0.2 μM INK128, harvested 7 days after exposure, versus DMSO alone (untreated)
Method: IMR90 primary human foetal lung fibroblasts were plated and 1 day later were exposed to aphidicolin, mTORi, aphidicolin+mTORi, or DMSO alone (untreated). Cells were harvested a further 7 days later and telomere length was assessed by TFF. (A) Representative imaging data of DNA fibres: Left panel—expanded view of telomere fibre fish imaging data. Center and right panels—close up of the boxes 1-5 shown on the left panel. Boxes are drawn around the telomere signals and the length in μm and kb is indicated. (B). Telomere length presented in a Tukey box plot. “+” is the mean, **=P<0.01. TFF was used to measure telomere length in cells exposed to one or both of two inhibitors: aphidicolin and an mTOR inhibitor. Cells (IMR90 primary human foetal lung fibroblasts) were plated and one day later were exposed to 0.1 μM aphidicolin, 0.2 μM of INK128 (an mTOR inhibitor), aphidicolin+INK128, or DMSO alone (untreated). Cells were harvested a further 7 days later and telomere length was assessed by TFF, essentially as described above.

SMILES	Telomere length compared with untreated cells
C[C@@]1(CO)[C@H](O)CC[C@@]2(C)[C@H]1CC[C@H]1C[C@@H]3C[C@@]12CC[C@]3(O)CO [aphidicolin]	telomere length in untreated cells was significantly greater
CC(C)n1nc(-c2ccc3oc(N)nc3c2)c2c(N)ncnc21 [INK128]	telomere length in untreated cells was significantly greater
